Laboratory results: ChEMBL document CHEMBL2429742, “Design, synthesis, and biological evaluation of novel 3-pyrrolo[b]cyclohexylene-2-dihydroindolinone derivatives as potent receptor tyrosine kinase inhibitors” (Bioorg Med Chem Lett, 2013)

Legend:
[1] = molecular target: Mast/stem cell growth factor receptor Kit (Homo sapiens, UniProt P10721)
[2] = molecular target: Vascular endothelial growth factor receptor 2 (Homo sapiens, UniProt P35968)
[3] = molecular target: Platelet-derived growth factor receptor beta (Homo sapiens, UniProt P09619)
Chain of Platelet-derived growth factor receptor beta (P09619 whole entry): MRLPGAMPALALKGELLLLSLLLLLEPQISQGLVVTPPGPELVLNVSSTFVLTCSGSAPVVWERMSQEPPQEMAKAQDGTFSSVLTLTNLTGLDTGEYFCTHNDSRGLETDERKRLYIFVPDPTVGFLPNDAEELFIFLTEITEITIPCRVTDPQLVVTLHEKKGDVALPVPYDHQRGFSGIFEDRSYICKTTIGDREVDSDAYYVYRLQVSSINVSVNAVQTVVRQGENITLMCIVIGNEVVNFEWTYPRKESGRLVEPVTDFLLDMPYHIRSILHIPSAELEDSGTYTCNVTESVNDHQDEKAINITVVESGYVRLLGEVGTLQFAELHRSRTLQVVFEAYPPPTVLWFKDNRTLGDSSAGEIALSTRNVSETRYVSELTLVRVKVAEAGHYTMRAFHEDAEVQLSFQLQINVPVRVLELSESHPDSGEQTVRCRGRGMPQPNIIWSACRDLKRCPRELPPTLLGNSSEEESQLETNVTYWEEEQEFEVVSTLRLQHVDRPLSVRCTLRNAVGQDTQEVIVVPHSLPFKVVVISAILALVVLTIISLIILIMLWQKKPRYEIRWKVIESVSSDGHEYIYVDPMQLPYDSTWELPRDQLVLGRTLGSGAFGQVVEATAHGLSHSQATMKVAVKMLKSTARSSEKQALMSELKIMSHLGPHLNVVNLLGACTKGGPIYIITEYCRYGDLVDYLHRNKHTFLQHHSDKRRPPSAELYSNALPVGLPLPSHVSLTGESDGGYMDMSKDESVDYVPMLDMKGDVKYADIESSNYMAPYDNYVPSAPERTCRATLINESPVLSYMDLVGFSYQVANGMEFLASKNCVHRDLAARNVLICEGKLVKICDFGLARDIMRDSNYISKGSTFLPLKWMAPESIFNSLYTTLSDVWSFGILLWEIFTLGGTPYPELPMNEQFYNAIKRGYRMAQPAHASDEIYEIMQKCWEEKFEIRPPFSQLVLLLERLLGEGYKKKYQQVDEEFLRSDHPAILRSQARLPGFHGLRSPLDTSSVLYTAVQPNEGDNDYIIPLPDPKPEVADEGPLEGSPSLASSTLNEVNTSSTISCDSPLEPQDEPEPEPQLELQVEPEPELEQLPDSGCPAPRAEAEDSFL

T-24 = experiment: Antiproliferative activity against human T24 cells after 72 hrs by MTT assay; type: functional, cell-based; settings: T-24, 72 h
HT-29 = experiment: cells; settings: Homo sapiens, HT-29, 72 h
[4] = Oral bioavailability in cynomolgus monkey; type: ADME, organism-based, Macaca fascicularis; settings: in vivo
cells = settings: Homo sapiens, BGC, 72 h
[5] = molecular target: Vascular endothelial growth factor receptor 3 (Homo sapiens, UniProt P35916); experiment: Inhibition of VEGFR3 (unknown origin)
Chain of Vascular endothelial growth factor receptor 3 (P35916 whole entry): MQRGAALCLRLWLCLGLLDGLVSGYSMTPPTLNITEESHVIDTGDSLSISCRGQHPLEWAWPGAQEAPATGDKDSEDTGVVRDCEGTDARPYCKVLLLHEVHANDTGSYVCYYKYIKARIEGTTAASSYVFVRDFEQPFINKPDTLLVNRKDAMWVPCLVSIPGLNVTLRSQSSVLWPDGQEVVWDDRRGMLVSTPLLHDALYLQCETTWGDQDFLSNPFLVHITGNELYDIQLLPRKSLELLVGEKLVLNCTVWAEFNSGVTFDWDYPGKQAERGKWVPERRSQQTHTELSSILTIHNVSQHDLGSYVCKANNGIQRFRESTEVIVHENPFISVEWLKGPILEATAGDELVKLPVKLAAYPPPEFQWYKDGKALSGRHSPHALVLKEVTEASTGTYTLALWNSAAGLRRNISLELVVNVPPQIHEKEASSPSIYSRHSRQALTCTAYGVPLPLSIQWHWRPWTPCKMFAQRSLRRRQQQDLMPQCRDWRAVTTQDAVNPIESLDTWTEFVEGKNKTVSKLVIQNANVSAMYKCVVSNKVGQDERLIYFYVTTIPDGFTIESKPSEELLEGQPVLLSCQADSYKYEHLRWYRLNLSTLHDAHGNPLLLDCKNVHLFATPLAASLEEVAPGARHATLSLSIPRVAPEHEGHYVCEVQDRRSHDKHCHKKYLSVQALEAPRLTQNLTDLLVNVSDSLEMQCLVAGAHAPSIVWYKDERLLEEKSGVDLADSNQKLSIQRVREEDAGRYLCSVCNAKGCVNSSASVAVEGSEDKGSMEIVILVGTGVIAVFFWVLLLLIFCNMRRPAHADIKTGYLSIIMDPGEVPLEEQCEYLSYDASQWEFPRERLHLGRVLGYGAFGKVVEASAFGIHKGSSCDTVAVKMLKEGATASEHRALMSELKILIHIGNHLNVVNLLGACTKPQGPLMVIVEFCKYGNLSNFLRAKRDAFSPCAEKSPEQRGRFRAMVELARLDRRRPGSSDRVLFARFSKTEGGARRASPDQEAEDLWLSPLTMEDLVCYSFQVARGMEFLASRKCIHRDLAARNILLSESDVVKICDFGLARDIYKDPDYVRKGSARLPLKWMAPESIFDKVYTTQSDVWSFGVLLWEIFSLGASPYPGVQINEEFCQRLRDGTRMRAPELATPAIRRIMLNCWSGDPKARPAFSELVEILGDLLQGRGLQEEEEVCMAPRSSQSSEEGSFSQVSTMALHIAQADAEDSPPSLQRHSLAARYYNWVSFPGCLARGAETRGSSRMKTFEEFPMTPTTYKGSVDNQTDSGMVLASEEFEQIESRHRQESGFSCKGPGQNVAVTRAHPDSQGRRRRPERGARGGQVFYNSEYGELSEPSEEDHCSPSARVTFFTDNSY

HepG2 = experiment: Antiproliferative activity against human HepG2 cells after 72 hrs by MTT assay; type: functional, cell-based; settings: HepG2, 72 h
BXPC-3 [6] = experiment: cells; settings: Homo sapiens, BXPC-3, 72 h
[7] = molecular target: Vascular endothelial growth factor receptor 1 (Homo sapiens, UniProt P17948); experiment: Inhibition of VEGFR1 (unknown origin)
BXPC-3 [8] = experiment: Ratio of sunitinib IC50 to compound IC50 for human BxPC3 cells; type: functional

Chain of Mast/stem cell growth factor receptor Kit (P10721 whole entry): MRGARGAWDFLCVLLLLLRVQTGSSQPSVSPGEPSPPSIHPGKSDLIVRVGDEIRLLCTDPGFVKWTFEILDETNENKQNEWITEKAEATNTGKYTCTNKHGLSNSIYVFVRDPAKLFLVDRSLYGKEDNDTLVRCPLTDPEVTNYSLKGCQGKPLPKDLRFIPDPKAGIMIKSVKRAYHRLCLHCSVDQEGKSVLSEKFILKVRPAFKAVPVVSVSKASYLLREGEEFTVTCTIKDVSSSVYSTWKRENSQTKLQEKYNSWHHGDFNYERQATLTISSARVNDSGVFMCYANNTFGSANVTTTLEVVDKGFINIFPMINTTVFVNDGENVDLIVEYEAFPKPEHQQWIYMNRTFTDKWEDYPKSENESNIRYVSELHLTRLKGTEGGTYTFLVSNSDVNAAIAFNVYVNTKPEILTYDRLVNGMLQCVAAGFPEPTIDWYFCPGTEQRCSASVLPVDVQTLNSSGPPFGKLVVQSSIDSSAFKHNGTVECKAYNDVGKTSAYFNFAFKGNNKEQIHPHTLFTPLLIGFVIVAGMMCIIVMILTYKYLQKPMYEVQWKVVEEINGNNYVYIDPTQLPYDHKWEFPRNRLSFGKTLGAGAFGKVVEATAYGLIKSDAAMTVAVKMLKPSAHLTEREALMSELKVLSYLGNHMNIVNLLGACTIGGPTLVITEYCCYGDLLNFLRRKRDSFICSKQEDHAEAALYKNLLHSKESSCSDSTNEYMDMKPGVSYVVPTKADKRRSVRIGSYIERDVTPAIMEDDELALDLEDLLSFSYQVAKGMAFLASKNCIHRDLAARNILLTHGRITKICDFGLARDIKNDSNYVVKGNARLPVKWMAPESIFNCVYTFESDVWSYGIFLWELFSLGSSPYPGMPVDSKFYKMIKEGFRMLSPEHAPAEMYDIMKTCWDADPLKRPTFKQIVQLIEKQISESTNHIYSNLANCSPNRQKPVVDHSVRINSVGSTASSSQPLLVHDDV
Chain of Vascular endothelial growth factor receptor 2 (P35968 whole entry): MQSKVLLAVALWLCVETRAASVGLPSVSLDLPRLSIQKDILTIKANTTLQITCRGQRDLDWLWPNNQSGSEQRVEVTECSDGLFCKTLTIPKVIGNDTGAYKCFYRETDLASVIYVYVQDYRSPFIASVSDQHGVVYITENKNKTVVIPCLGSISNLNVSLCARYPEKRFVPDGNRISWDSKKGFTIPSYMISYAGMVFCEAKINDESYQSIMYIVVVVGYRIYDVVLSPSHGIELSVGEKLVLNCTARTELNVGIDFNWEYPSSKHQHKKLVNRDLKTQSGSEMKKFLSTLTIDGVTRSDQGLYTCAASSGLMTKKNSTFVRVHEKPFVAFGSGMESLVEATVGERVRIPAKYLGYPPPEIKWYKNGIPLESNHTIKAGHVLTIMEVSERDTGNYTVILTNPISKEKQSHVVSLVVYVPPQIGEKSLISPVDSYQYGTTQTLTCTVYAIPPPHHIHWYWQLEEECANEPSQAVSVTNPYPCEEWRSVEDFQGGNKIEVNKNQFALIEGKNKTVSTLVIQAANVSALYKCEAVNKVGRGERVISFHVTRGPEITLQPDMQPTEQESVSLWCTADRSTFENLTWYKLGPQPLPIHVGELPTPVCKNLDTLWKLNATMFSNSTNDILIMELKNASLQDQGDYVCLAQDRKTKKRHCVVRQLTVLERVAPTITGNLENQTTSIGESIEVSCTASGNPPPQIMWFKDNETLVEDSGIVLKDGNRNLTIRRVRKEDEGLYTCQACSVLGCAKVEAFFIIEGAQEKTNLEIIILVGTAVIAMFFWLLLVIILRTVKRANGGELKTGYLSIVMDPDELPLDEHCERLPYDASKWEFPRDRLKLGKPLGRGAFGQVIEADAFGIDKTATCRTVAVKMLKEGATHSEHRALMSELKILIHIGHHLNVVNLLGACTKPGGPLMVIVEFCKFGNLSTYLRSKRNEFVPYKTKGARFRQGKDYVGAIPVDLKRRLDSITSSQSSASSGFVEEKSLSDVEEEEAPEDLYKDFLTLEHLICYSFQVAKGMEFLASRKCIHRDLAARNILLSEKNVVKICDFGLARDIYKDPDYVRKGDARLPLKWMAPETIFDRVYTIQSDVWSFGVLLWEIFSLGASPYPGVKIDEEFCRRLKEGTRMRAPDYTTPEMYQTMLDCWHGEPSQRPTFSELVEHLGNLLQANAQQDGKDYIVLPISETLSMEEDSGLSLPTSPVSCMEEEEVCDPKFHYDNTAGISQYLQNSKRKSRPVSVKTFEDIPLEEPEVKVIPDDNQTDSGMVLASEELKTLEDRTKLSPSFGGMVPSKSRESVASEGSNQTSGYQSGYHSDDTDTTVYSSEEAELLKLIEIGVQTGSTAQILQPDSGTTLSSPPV

| Structure (SMILES) | IC50 [1] [µM] | IC50 [2] [µM] | IC50 [3] [µM] | also measured |
| --- | --- | --- | --- | --- |
| CCN(CC)CCNC(=O)c1c(C)[nH]c2c1CCC/C2=C1/C(=O)Nc2ccc(OC)cc21 | 0.0355 | 0.0246 | 0.101 |  |
| Cc1[nH]c2c(c1C(=O)NCCN1CCCC1)CCC/C2=C1/C(=O)Nc2ccc(F)cc21 | 0.0074 | 0.0097 | 0.0416 |  |
| Cc1[nH]c2c(c1C(=O)NCCN1CCCCC1)CCC/C2=C1/C(=O)Nc2ccc(F)cc21 | 0.0058 | 0.0043 | 0.0194 |  |
| CCN(CC)CCNC(=O)c1c(C)[nH]c2c1CCC/C2=C1/C(=O)Nc2ccc(F)cc21 [TAFETINIB] |  |  |  | IC50 (T-24): 3.31 µM; IC50 (HT-29): 1.2 µM; bioavailability [4]: 90%; IC50 (cells): 6.11 µM; IC50 [5]: 0.0013 µM; IC50 (HepG2): 7.27 µM; IC50 (BXPC-3 [6]): 0.52 µM; IC50 [7]: 0.0013 µM |
| CCN(CC)CCCNC(=O)c1c(C)[nH]c2c1CCC/C2=C1/C(=O)Nc2ccc(F)cc21 | 0.0099 | 0.0027 | 0.0213 |  |
| CCN(CC)CCNC(=O)c1c(C)[nH]c2c1CCC/C2=C1/C(=O)Nc2ccc(Cl)cc21 | 0.0027 | 0.0026 | 0.0121 | IC50 (T-24): 1.83 µM; IC50 (HT-29): 6.48 µM; IC50 (cells): 2.03 µM; IC50 (HepG2): 3.14 µM; IC50 (BXPC-3 [6]): 1.95 µM |
| Cc1[nH]c2c(c1C(=O)NCCCN1CCCC1)CCC/C2=C1/C(=O)Nc2ccc(F)cc21 | 0.0107 | 0.0038 | 0.0648 |  |
| CCN(CC)CCNC(=O)c1c(C)[nH]c2c1CCC/C2=C1/C(=O)Nc2ccc(S(=O)(=O)N(CC)CC)cc21 | 0.398 | 0.33 | 0.396 |  |
| CCN(CC)CCNC(=O)c1c(C)[nH]c2c1CCC/C2=C1/C(=O)Nc2ccccc21 |  | 0.0094 | 0.0899 | IC50 (T-24): 3.56 µM; IC50 (HT-29): 0.54 µM; IC50 (cells): 6.73 µM; Ratio IC50 (BXPC-3 [8]): 7; IC50 (HepG2): 7.73 µM; IC50 (BXPC-3 [6]): 0.52 µM |
| Cc1[nH]c2c(c1C(=O)NCCc1ccccn1)CCC/C2=C1/C(=O)Nc2ccc(F)cc21 | 0.0377 | 0.0114 | 0.161 |  |
| CCN(CC)CCNC(=O)c1c(C)[nH]c2c1CCC/C2=C1/C(=O)Nc2c(F)cccc21 | 0.181 | 0.112 | 0.26 |  |
| CCN(CC)CC(O)CNC(=O)c1c(C)[nH]c2c1CCC/C2=C1/C(=O)Nc2ccc(F)cc21 (configuration not stated) | 0.0041 | 0.0025 | 0.0193 |  |
| CCN(CC)CCNC(=O)c1c(C)[nH]c2c1CCC/C2=C1/C(=O)Nc2ccc([N+](=O)[O-])cc21 | 0.0069 | 0.0257 | 0.0133 |  |
| CCN(CC)CCNC(=O)c1c(C)[nH]c2c1CCC/C2=C1/C(=O)Nc2ccc(Br)cc21 | 0.0023 | 0.0039 | 0.0076 |  |
| CCN(CC)CCNC(=O)c1c(C)[nH]c2c1CCC/C2=C1/C(=O)Nc2ccc(C(=O)OC)cc21 | 0.256 | 0.167 | 0.0703 |  |
| Cc1[nH]c2c(c1C(=O)N1CCC(N3CCCCC3)CC1)CCC/C2=C1/C(=O)Nc2ccc(F)cc21 | 0.0078 | 0.008 | 0.0407 |  |
| Cc1[nH]c2c(c1C(=O)N1CCC[C@H]1CN1CCCC1)CCC/C2=C1/C(=O)Nc2ccc(F)cc21 | 0.0085 | 0.0118 | 0.118 |  |
| CCN(CC)CCNC(=O)c1c(C)[nH]c(/C=C2\C(=O)Nc3ccc(F)cc32)c1C [SUNITINIB] |  |  |  | IC50 (T-24): 2.44 µM; IC50 (HT-29): 1.47 µM; IC50 (cells): 4.78 µM; IC50 (HepG2): 5.61 µM; IC50 (BXPC-3 [6]): 3.63 µM |
| Cc1[nH]c2c(c1C(=O)NCCO)CCC/C2=C1/C(=O)Nc2ccc(F)cc21 | 0.0014 | 0.0011 | 0.0127 |  |
| CCN(CC)CCNC(=O)c1c(C)[nH]c2c1CCC/C2=C1/C(=O)Nc2cccc(F)c21 | 0.0431 | 0.015 | 0.0621 |  |
| Cc1[nH]c2c(c1C(=O)NCCN1CCOCC1)CCC/C2=C1/C(=O)Nc2ccc(F)cc21 | 0.002 | 0.0016 | 0.0132 |  |
| CCN(CC)CCNC(=O)c1c(C)[nH]c2c1CCC/C2=C1/C(=O)Nc2ccc(C)cc21 | 0.0041 | 0.0023 | 0.0156 |  |
| Cc1[nH]c2c(c1C(=O)NCCN(C)C)CCC/C2=C1/C(=O)Nc2ccc(F)cc21 | 0.0066 | 0.003 | 0.0227 |  |
| Cc1[nH]c2c(c1C(=O)NCCCN1CCOCC1)CCC/C2=C1/C(=O)Nc2ccc(F)cc21 | 0.0057 | 0.001 | 0.018 |  |
| Cc1[nH]c2c(c1C(=O)N1CCOCC1)CCC/C2=C1/C(=O)Nc2ccc(F)cc21 | 0.0021 | 0.0011 | 0.0401 |  |
